Consider 15 molecules from article PMC9130538, “Amino acids in transmembrane helix 1 confer major functional differences between human and mouse orthologs of the polyspecific membrane transporter OCT1” (The Journal of Biological Chemistry, 2022).

Data set [1] concerns the target T1, human OCT1 (Homo sapiens, UniProt O15245).
T1 sequence (O15245 1-554): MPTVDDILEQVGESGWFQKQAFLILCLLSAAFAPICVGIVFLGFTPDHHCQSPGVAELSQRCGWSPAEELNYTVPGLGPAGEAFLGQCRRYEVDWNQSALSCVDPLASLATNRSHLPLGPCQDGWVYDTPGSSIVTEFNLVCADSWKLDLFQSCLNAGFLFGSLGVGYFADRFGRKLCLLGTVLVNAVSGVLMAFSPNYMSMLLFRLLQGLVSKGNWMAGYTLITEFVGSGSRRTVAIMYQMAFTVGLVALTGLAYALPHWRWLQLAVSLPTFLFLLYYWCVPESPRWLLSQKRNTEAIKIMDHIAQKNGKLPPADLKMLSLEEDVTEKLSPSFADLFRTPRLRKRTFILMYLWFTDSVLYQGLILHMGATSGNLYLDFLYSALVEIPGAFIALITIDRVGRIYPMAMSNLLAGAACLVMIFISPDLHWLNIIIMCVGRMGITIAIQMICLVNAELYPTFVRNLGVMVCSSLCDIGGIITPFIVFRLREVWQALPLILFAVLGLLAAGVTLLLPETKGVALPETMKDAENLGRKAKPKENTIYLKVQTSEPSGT
The data set is described as follows: in vitro. The note with it: for transport by human OCT1 (saturability): concentration-dependent uptake, stably transfected HEK293, 2 min. As for the experimental part: (§1) Generation and characterization of these cell lines has been described in detail before ([34], [48], [49]). Cells were cultured in Dulbecco’s Modified Eagle’s Medium supplemented with 10% fetal bovine serum, 100 U/ml penicillin, and 100 μg/ml streptomycin at 37 °C and 5% CO2 and were passaged twice a week.
(§2) At 48 h prior to the experiment, 6 × 10^5 cells were seeded per well in 12-well plates. When using transiently transfected cells, 5 × 10^5 T-REx-293 cells (Life Technologies) were seeded per well in 12-well plates 72 h prior to the experiment, and they were transfected 24 h later as described previously. Twelve-well plates were precoated with poly-D-lysine.
(§3) Cellular uptake experiments were performed at 37 °C and pH 7.4 using HBSS supplemented with 10 mM Hepes (in the following referred to as HBSS+). Cells were washed with 1 ml prewarmed (37 °C) HBSS+, and the uptake was initiated by adding 400 μl of prewarmed HBSS+ containing the substrate. Uptake was allowed for exactly 2 min and afterward stopped by adding 2 ml ice-cold HBSS+. Cells were washed twice with 2 ml ice-cold HBSS+ and lysed with 80% acetonitrile supplemented with internal standard, 0.1 N NaOH/0.1% SDS, or radioimmunoprecipitation buffer for LC–MS/MS, liquid scintillation counting, or fluorescence spectroscopy detection, respectively. Intracellular substrate concentrations were measured as described in the following and were then normalized to the amount of total protein in the samples as measured using the bicinchoninic acid assay ([51]).
(§4) For LC–MS/MS quantification of intracellular substrate concentrations, the cell lysate was centrifuged at 16,000g for 15 min, and 350 μl of supernatant was evaporated to dryness under nitrogen flow at 40 °C. The sample was reconstituted with 200 μl 0.1% formic acid, and between 2 and 30 μl were injected into the LC–MS/MS system (Table S1).
(§5) An API4000 QTRAP tandem mass spectrometer with ESI interface (AB SCIEX) was used, coupled to a Shimadzu Nexera X2 UHPLC system with LC 30AD pumps and SiL 30AC autosampler (Shimadzu).
(§6) Intracellular concentrations of radioactively labeled substrates MPP^+ and TEA^+ were quantified using liquid scintillation counting. To this end, 400 μl cell lysate was transferred into a 20 ml scintillation vial, 9 ml Aquasafe 500 Plus liquid scintillator (both Zinsser Analytics) was added, and the sample was measured in the Scintillation Counter LS6500 (Beckman Coulter).
(§7) For both analyses, SPSS Statistics, version 28 (SPSS, Inc, IBM) was used.

Data set [2] has as its target T2, mouse Oct1 (Mus musculus, UniProt O08966).
T2 sequence (O08966 1-556): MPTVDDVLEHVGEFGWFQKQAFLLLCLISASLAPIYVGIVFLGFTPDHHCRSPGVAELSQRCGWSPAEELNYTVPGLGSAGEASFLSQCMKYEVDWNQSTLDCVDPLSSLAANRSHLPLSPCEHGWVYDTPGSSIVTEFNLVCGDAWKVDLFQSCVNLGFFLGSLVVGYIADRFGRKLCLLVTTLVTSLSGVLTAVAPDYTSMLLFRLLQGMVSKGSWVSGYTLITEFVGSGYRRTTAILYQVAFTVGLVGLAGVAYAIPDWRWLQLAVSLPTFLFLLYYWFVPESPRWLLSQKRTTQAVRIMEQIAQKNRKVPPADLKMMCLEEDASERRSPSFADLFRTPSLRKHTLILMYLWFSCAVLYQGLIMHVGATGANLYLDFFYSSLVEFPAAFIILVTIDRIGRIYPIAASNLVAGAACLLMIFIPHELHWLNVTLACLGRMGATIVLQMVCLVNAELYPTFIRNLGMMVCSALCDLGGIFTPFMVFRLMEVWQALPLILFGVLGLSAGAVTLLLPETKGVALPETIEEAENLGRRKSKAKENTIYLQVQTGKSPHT
The data set is described as follows: in vitro. As for the experimental part: as §1, §2, §3, §4, §5, §6, §7

Data set [3] deals with T1, human OCT1. Set-up: expressed in transfected cells; method as in PMID 33037045, PMID 34040533. The conditions noted are these: HEK293 stably transfected, 2 min, data previously published, ref [34], [35], cited from earlier work; for Km: read-out: KM ± SD, hOCT1.
Data set [4] addresses T2, mouse Oct1. More on the design: expressed in transfected cells; method as in PMID 33037045, PMID 34040533. The note with it: HEK293 stably transfected, 2 min, data previously published, ref [34], [35], cited from earlier work; for Km: read-out: KM ± SD, mOct1.
Setting [5] is: ASP^+ by fluorescence spectroscopy, HEK293 stably transfected, 2 min.
[6] abbreviates: read-out: KM ± SD, hOCT1, HEK293 stably transfected, 2 min uptake, 37 °C, pH 7.4.
[7] abbreviates: human versus mouse OCT1, stably transfected HEK293.
[8] abbreviates: HEK293 stably transfected, 2 min uptake, 37 °C, pH 7.4, OCT1-mediated uptake.

Molecules are shown by their SMILES. Entries after “also recorded” stand apart in the source; their conditions may differ. Where two headings read alike, the source gives them in different places.

For the molecule `CC[N+](CC)(CC)CC` [TEA^+, tetraethylammonium], the “CLint ± SD, hOCT1” value at human OCT1 [1] is listed as 6.31 ± 2.45 μl × min^−1 × mg protein^−1. At human OCT1 [1] (pH 7.4), the Km was found to be 749 ± 438 µM and the “vmax ± SD, hOCT1” value is listed as 4207 ± 1511 pmol × min^−1 × mg protein^−1. In addition, the “CLint ± SD, mOct1” value on mouse Oct1 [2] was 27.6 ± 9.72 μl × min^−1 × mg protein^−1. For the same molecule, at mouse Oct1 [2] (pH 7.4), the Km was determined as 305 ± 141 µM and the “vmax ± SD, mOct1” value is listed as 7764 ± 2883 pmol × min^−1 × mg protein^−1.
As for `NC[C@H](O)c1ccc(O)c(O)c1` [Noradrenaline], the “transport by human OCT1 (saturability)” value at human OCT1 [1] is given as “lacked any saturable transport”.
Regarding `CN(C)c1ccc(C=Cc2cc[n+](C)cc2)cc1` [ASP^+, 4-(4-(dimethylamino)styryl)-N-methylpyridinium], the “vmax ± SD, hOCT1” value at human OCT1 [1] (setting [5]) is reported as 361,671 ± 2974 RFU × min^−1 × mg protein^−1. Also, the Km on human OCT1 [1] (setting [6]) is 63 ± 15.3 µM; on mouse Oct1 [2] (read-out: KM ± SD, mOct1, HEK293 stably transfected, 2 min uptake, 37 °C, pH 7.4), 12.8 ± 2.97 µM. Also, the “vmax ± SD, mOct1” value on mouse Oct1 [2] (setting [5]) was 53,802 ± 7155 RFU × min^−1 × mg protein^−1.
In the case of `[H]/N=C(/N)N/C(=N/[H])NCCc1ccccc1` [Phenformin], on human OCT1 [1] (human, pH 7.4), the “CLint ± SD, hOCT1” value is 106 ± 22.8 μl × min^−1 × mg protein^−1. Also, the “CLint ± SD, mOct1” value at mouse Oct1 [2] (mouse, pH 7.4) was 143 ± 26.2 μl × min^−1 × mg protein^−1.
Regarding `Cc1ncc(C[n+]2csc(CCO)c2C)c(N)n1` [Thiamine], on human OCT1 [3], the “vmax ± SD, hOCT1” value is given as 8261 ± 3720 pmol × min^−1 × mg protein^−1 and the Km is 1060 ± 341 µM. In addition, on mouse Oct1 [4], the “vmax ± SD, mOct1” value is on record as 3712 ± 1031 pmol × min^−1 × mg protein^−1 and the Km was 143 ± 96.3 µM.
Turning to `CC(C)C(=O)O[C@H](CC(=O)[O-])C[N+](C)(C)C` [IBC, isobutyryl-L-carnitine], the “vmax ± SD, mOct1” value on mouse Oct1 [4] was 8366 ± 1705 pmol × min^−1 × mg protein^−1. Besides, the Km on mouse Oct1 [4] is 1380 ± 356 µM. Further, the figures for the “transport by human OCT1 (saturability)” value at human OCT1 [1] and at human OCT1 [1] (listed as isobutyryl-L-carnitine (IBC)) were “not transported at all” and “lacked any saturable transport”, respectively.
Consider `CC(C)NCC(O)c1cc(O)cc(O)c1` (centres unmarked) [Orciprenaline], for which, at human OCT1 [1] (setting [7]), the “fold lower affinity (KM) of human OCT1 than mouse Oct1 (higher affinity of mouse Oct1)” value is “more than sixfold higher affinity of mouse Oct1”.
As for `CC(NCCc1ccc(O)cc1)C(O)c1ccc(O)cc1` (centres unmarked) [Ritodrine], the “fold higher affinity (KM) of human than of mouse OCT1” value at human OCT1 [1] (setting [7]) is roughly 10 fold.
As for `CN(C)C(=N)N=C(N)N` [Metformin], on human OCT1 [3], the “vmax ± SD, hOCT1” value is on record as 14,703 ± 4346 pmol × min^−1 × mg protein^−1 and the Michaelis constant (Km) is 2200 ± 1150 µM. Further, at mouse Oct1 [4], the “vmax ± SD, mOct1” value is given as 17,496 ± 7097 pmol × min^−1 × mg protein^−1 and the Km was 491 ± 155 µM.
With `C[N@+]1(CC2CC2)CC[C@]23c4c5ccc(O)c4O[C@H]2C(=O)CC[C@@]3(O)[C@H]1C5` [Methylnaltrexone], on mouse Oct1 [2] (setting [8]), the “vmax ± SD, mOct1” value is 414 ± 130 pmol × min^−1 × mg protein^−1.
As to `CC(CCc1ccc(O)cc1)NCC(O)c1ccc(O)cc1` (centres unmarked) [Ractopamine], the “fold higher affinity (KM) of human than of mouse OCT1” value at human OCT1 [1] (setting [7]) was “comparable between human and mouse OCT1”.
On to `C[N+](C)(C)CCO` [Choline], for which the “transport by human OCT1 (saturability)” value at human OCT1 [1] is reported as “lacked any saturable transport; also recorded: not transported at all”.
Take `COc1ccc(CC(C)NCC(O)c2ccc(O)c(NC=O)c2)cc1` (centres unmarked) [Formoterol]: at human OCT1 [1] (setting [8]), the “vmax ± SD, hOCT1” value is given as 434 ± 111 pmol × min^−1 × mg protein^−1. Moreover, on mouse Oct1 [2] (setting [8]), the “vmax ± SD, mOct1” value is recorded as 1458 ± 317 pmol × min^−1 × mg protein^−1.
For the molecule `C[N+]1(C)[C@@H]2C[C@@H](OC(=O)C(O)(c3cccs3)c3cccs3)C[C@H]1[C@@H]1O[C@@H]12` [Tiotropium], the Km at human OCT1 [1] (human, pH 7.4) was determined as 7.82 ± 1.77 µM; at mouse Oct1 [2] (mouse, pH 7.4) it was 1.47 ± 0.12 µM. Further, the “vmax ± SD, hOCT1” value on human OCT1 [1] (pH 7.4) is 836 ± 322 pmol × min^−1 × mg protein^−1. The “vmax ± SD, mOct1” value on mouse Oct1 [2] (pH 7.4) is 285 ± 87.1 pmol × min^−1 × mg protein^−1.
In the case of `C[n+]1ccc(-c2ccccc2)cc1` [MPP^+, 1-methyl-4-phenylpyridinium], the “vmax ± SD, hOCT1” value on human OCT1 [1] (setting [8]) is 3112 ± 419 pmol × min^−1 × mg protein^−1. The Km at human OCT1 [1] (setting [6]) turned out to be 71.1 ± 17.3 µM. In addition, at mouse Oct1 [2], the “CLint ± SD, mOct1” value is reported as 80.8 ± 12.1 μl × min^−1 × mg protein^−1. On mouse Oct1 [2] (pH 7.4), the Km amounted to 24.4 ± 7.95 µM and the “vmax ± SD, mOct1” value is recorded as 1910 ± 450 pmol × min^−1 × mg protein^−1.

One may read the Km as the concentration of substrate that gives half-maximal velocity.
